The record followed here is US9012641B2, “Crystalline forms of Prasugrel salts” (Teva Pharmaceuticals Industries Ltd., priority 2010, dated 2015).

Structures can show the parent of a compound that is named as a salt.

The nature of the series: Storage of the sample in an open Petri dish at room conditions, reanalysed on HPLC. Format: physicochemical. The note with it: room conditions (20-25° C., relative humidity 20-30%), 1 month, HPLC purity before storage 99.94%. The procedure: The sample was left in an open Petri dish at room conditions (20-25° C., relative humidity 20-30%) for 1 month and then reanalyzed on HPLC giving purity of 99.84%.

For `CC(=O)Oc1cc2c(s1)CCN(C(C(=O)C1CC1)c1ccccc1F)C2` (stereo not shown) [form II of prasugrel hydrobromide, Prasugrel hydrobromide], the “HPLC purity after storage” value is 99.84%.
